Patent publication US8119640B2, “Hedgehog pathway antagonists methods of use” (The Board of Trustees of the Leland Stanford Junior …, priority 2008, dated 2012)

Tests used:
[1] = tested on: MAPK; conditions: NIH-3T3 cells, 10 μM U0126
Method: NIH-3T3 cells were seeded into 6-well plates and grown to 80% confluency in DMEM containing 10% CS, 100 U/mL penicillin, and 0.1 mg/mL streptomycin. Cells were then serumstarved for 8 h in DMEM containing 0.5% CS and either DMSO, 15 μM HPI-1, 20 μM HPI-2, 30 μM HPI-3, or 30 μM HPI-4. 50 μM LY294002 and 10 μM U0126 were used as positive controls. After serum starvation, cells were stimulated with 10 ng/ml PDGF BB for 30 min, washed in PBS, and lysed in buffer containing 50 mM Tris HCl pH 7.4, 250 mM NaCl, 20 mM NaF, 2 mM sodium orthovanadate, 2 mM EDTA, 2 mM PMSF, 1% Triton X-100, and EDTA free protease inhibitor cocktail (Roche). Cell lysates were clarified by centrifugation at 20,000×g and total protein concentrations were determined by the BCA assay (Pierce). 15 μg of protein from each lysate was mixed with 6×SDS-PAGE sample buffer (300 mM Tris-HCl, pH 6.8 containing 60% glycerol, 12% SDS, 600 mM DTT, and 0.05% bromophenol blue), boiled for 17 5 min and then resolved on 4-12% Bis-Tris Criterion XT gels. The electrophoresed samples were transferred to PVDF membranes and blocked overnight in TBST buffer containing 5% BSA. […]

[2] = tested on: Hh pathway; assay: Shh-LIGHT2 assay for Hh pathway activation (Gli-dependent firefly luciferase); assay type: cell-based; conditions: 0.5 μM SAG versus Shh
Method: Shh-LIGHT2 assay for Hh pathway activation and library screening conditions. h-N-conditioned medium was prepared as previously described. […] For 96-well plate assays, Shh-LIGHT2 cells were seeded into each plate (10,000 cells/well) and cultured to confluency. The Shh-LIGHT2 cells were then grown in DMEM containing 0.5% CS, 100 U/mL penicillin, 0.1 mg/mL streptomycin, either 5% Shh-N-conditioned medium or 500 nM SAG, and various concentrations of the HPIs. After the cells were cultured for another 30 h, the resulting firefly and Renilla luciferase activities were measured using a Dual Luciferase Reporter kit (Promega) and a Veritas microplate luminometer (Turner Biosystems).
When the cells reached >90% confluency, they were removed by trypsinization and diluted to a final volume of 50 mL medium. This cell suspension was then plated into clear-bottom, white-walled 384-well plates using a Titertek Multidrop dispenser (50 μL/well) and the cells were cultured until they reached confluency (3-4 days). […] The plates were then placed into an automated Staccato system (Caliper Life Sciences), which includes an automated CO2 incubator. An automated protocol was then run, in 3 which a Multidrop dispenser added 10 μL of a SAG solution in 0.5% CS medium (final SAG concentration of 500 nM) to columns 1-22 and 100 nL of each compound solution was added to the plates using a V&P Scientific pin tool, resulting in a final compound screening concentration of 10 μM. The SAG-free wells were used as negative controls. After 28-32 h, the assay medium was manually removed and the plates were frozen. To assay the firefly luciferase activities, the plates were thawed and placed into a Twister II stacker in the Staccato system. Bright-Glo luciferase substrate (Promega) was added by the Multidrop dispenser and the plates were analyzed on an Analyst GT microplate reader (2 min in the dark, 0.2 sec integration/well; Molecular Devices). Hits were defined as compounds that reduce the firefly luciferase signal by at least 50% compared to inhibitor-free controls. Primary hits were then re-tested in duplicate in an eight-point, 1:1 serially diluted doseresponse curve with a starting concentration of 20 μM. In these experiments, the median inhibitory concentration (IC50) for both firefly and Renilla luciferase were determined using a Dual-Glo kit (Promega).

[3] = tested on: Hh pathway; assay: Shh-EGFP assay for Hh pathway activation; assay type: cell-based; conditions: 3 μM cyclopamine; 15 μM HPI-1, 20 μM HPI-2, 30 μM HPI-3, 30 μM HPI-4
Method: Shh-EGFP assay for Hh pathway activation. A Gli-dependent enhanced green fluorescent protein reporter (Shh-EGFP) was generated by excising firefly luciferase cDNA from the 8XGliBs vector using NcoI/Hpal, and ligating in EGFP cDNA excised from the pEGFP-C1 vector (Clontech) by NcoI/Af/II digestion. […] The cells were grown to confluency and treated with DMEM containing 0.5% CS, 100 U/mL penicillin, 0.1 mg/mL streptomycin, and 5% Shh-N-conditioned medium for 30 h. Following Shh-N treatment, the adherent cultures were dissociated into single cells with 0.05% Trypsin-EDTA (300 μL/well; Invitrogen) for 5 min. The cells were then suspended in 1 mL of PBS containing 1% CS and sorted on a BD FACSAria (excitation: 488 nm; emission: 530/30 nm) to enrich for cells expressing EGFP in a Shh-N-responsive manner. […] To identify Shh-EGFP clones with maximum Shh-N-responsiveness, individual lines were seeded into 24-well plates (45,000 cell/well) and cultured for 48 h. The cells were then treated with DMEM containing 0.5% CS, 100 U/mL pencillin, 0.1 mg/mL streptomycin or the culture medium plus 5% Shh-N-conditioned medium. After 30 h, the adherent cultures were treated with 0.05% trypsin-EDTA (150 μL/well; Invitrogen) for 5 min to dissociate them into single cells. The cells were then resuspended in 500 μL of PBS containing 1% CS and analyzed on a BD FACSCalibur (excitation: 488 nm; emission: 530/30 nm). 10,000 cells were used to assess EGFP expression levels as a measure of Hh pathway activation, and the data was analyzed using FlowJo software (Tree Star). Clones with low basal EGFP levels and maximum Shh-Ninduced EGFP expression were selected for further use. To assess the inhibitory activities of the HPIs in the Shh-EGFP cells, a clonal line with maximum Shh-responsiveness was cultured in 24-well plates as described above. […] The resulting EGFP levels were then evaluated by FACS and quantified using the FlowJo software.

[4] = tested on: C3H10T(1/2) cells; assay: C3H10T(1/2) assay for Hh pathway activation (alkaline phosphatase); assay type: cell-based
Method: C3H10T(1/2) assay for Hh pathway activation. C3H10T(1/2) cells (ATCC) were plated into 96-well plates using DMEM containing 10% FBS, 100 U/mL penicillin, 0.1 mg/mL streptomycin, 5% Shh-N-conditioned medium, and various concentrations of the Hh pathway inhibitors. After approximately 40 h, the cells were washed with PBS and lysed in 50 μL of buffer containing 50 mM Tris-HCl, pH 9.5, 150 mM NaCl, 5 mM MgCl2, and 1% Triton X-100. Alkaline phosphatase activities in the cell lysates were quantified by adding 10 μL of the lysate to 50 μL of CDP-Star chemiluminescence reagent (Perkin Elmer) and measuring the resulting chemiluminescence on a Veritas microplate luminometer.

[5] = tested on: FLAG-Gli2; assay: Analysis of Gli2 processing and Shh-dependent Gli2 stabilization; assay type: cell-based, mouse; conditions: Shh-EGFP FLAG-Gli2 cells, absence and presence of Shh, 24 h
Method: Analysis of Gli2 processing and Shh-dependent Gli2 stabilization. […] Each compound incubation was also done in the absence and presence of 5% Shh-N-conditioned medium, and the cells were maintained under these conditions for 24 h. The cells were subsequently solubilized in lysis buffer (100 μL/well; 50 mM Tris-HCl, pH 7.4, 1% Triton X-100, 250 mM NaCl, 2 mM EDTA, 20 mM NaF, 2 mM Na3VO4, 2 mM 2-mercaptoethanol, EDTA-free protease inhibitor cocktail (Roche)). This suspension was transferred to a 1.5-mL centrifuge tube and incubated on ice for 30 min, with vortexing every 5 min. The cell lysates were then centrifuged at 20,000×g at 4° C. for 20 min. Supernatants were removed, and a BCA protein assay was performed to quantify protein levels. Mouse anti-FLAG M2 agarose slurry (20 μL, Sigma) was pelleted by centrifugation and incubated with 800 ng of protein from each condition for 90 min at 4° C. and then washed three times with 1 mL of wash buffer (75 mM Tris-HCl buffer, pH 8.0 containing 225 mM NaCl, 0.5% Triton X-100) and centrifuged at 2,300×g at 4° C. The agarose beads were suspended in 30 μL of 1×SDS-PAGE sample buffer (50 mM Tris-HCl, pH 6.8 containing 10% glycerol, 2% SDS, 50 mM DTT, 200 mM 2-mercaptoethanol, and 0.001% bromophenol blue), and the mixture was boiled for 5 min. The samples were then resolved on a 4-12% Bis-Tris Criterion XT gel and transferred to a PVDF membrane. The membrane was dehydrated with methanol, and then probed with rabbit anti-FLAG antibody (Sigma; 1:1,000 dilution in blocking buffer (PBS 21 containing 3% non-fat dried milk and 0.01% Tween 20)) for 90 min. […] Blots were washed 4×3 min in PBS, and the immunoreactive bands were detected with a SuperSignal West Dura kit and a ChemiDoc XRS system. Protein bands were quantified using Quantity One software (Bio-Rad). For each experiment, boxes of equal size were drawn around the FLAG-Gli2 and FLAG-Gli2R bands. Band intensities were then normalized to the average intensity for all bands in a given experiment. The results from all experiments were averaged and normalized relative to the basal level of FLAG-Gli2 (DMSO treatment without Shh-N-conditioned medium).

[6] = tested on: Hh pathway; conditions: β-galactosidase reporter
Method: Ptch1^−/− fibroblast assay for Hh pathway activation Hh pathway activation in Ptch1^−/− fibroblasts was assayed as previously described, using the knocked-in β-galactosidase gene as a reporter for Hh target gene expression. Ptch1^−/− fibroblasts were grown to 70-80% confluence in a 15-cm dish, trypsinized, and then resuspended in 40 mL of DMEM containing 10% FBS, 100 U/mL penicillin, and 0.1 mg/mL DMSO. This cell suspension was aliquoted into 96-well plates (150 μL/well), cultured overnight, and then treated with DMSO or various concentrations of the HPIs for 28 h. […] The cells were then lysed in Tropix lysis solution (30 μL/well; Applied Biosystems) and β-galactosidase levels were quantified by a Tropix Galacto-Star kit (Applied Biosystems) on a Veritas microplate luminometer.

[7] = tested on: Hh pathway
Method: SmoM2-LIGHT assay for Hh pathway activation. SmoM2-LIGHT cells (previously named SmoA1-LIGHT cells) were grown to 70-80% confluence in a 15-cm dish, trypsinized, and then resuspended in 40 mL of DMEM containing 10% FBS, 100 U/mL penicillin, and 0.1 mg/mL DMSO. This cell suspension was aliquoted into 96-well plates (150 μL/well), cultured overnight, and then treated with DMSO or various concentrations of the HPIs for 28 h. Cells were then washed once with PBS then treated with 50 μL of passive lysis buffer (Promega). Hh pathway-dependent firefly luciferase activity in the lysates was quantified using Bright-Glo reagent and a Veritas microplate luminometer. Constitutive β-galactosidase activity was measured using the Tropix Galacto-Star kit.

[8] = biological target: Smo (Mus musculus, UniProt P56726); assay: FRET assay for Smo multimerization (Smo-CFP/Smo-YFP); assay type: cell-based, murine; set-up: expressed in transfected cells; host or cells: NIH-3T3; conditions: 10 μM cyclopamine, 500 nM SAG, 10 μM HPIs
Chain of Smo (P56726 33-793): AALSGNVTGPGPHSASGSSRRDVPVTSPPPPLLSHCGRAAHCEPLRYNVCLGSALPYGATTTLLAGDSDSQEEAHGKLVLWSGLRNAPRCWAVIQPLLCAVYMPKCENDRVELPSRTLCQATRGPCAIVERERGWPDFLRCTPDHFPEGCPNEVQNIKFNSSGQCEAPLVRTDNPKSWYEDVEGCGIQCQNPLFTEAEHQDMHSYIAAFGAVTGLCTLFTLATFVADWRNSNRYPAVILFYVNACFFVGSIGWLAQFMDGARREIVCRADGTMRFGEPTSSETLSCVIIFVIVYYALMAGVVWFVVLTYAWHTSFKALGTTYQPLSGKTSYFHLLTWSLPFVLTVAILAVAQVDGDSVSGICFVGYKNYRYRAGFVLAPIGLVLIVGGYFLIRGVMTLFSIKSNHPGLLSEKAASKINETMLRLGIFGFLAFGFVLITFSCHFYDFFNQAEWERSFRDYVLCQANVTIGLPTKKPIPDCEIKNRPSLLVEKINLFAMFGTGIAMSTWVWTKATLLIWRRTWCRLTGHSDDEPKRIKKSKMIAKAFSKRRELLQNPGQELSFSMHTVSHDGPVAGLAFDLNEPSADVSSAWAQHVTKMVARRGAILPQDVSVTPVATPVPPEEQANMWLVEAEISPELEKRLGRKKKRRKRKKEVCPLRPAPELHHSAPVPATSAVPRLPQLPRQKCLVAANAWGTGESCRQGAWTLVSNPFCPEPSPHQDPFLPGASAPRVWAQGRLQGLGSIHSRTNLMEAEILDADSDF
Chain of Smo (P56726 33-793): as above
Method: FRET assay for Smo multimerization. […] The cells were washed with PBS buffer, fixed with 4% paraformaldehyde for 20 min, and mounted on slides in 80% glycerol. Fluorescence signals were acquired with the 100× objective of a Zeiss LSM510 confocal microscope with the following conditions: CFP was excited by 458-nm light and the emission was collected through a BP 480-520-nm filter. YFP was excited by 514-nm light and the emission was collected through a BP 535-590-nm filter. The CFP signal was obtained before and after photobleaching YFP(CFPBP and CFPAP, respectively) using the full power of the 514-nm laser line for 1-2 min at the top half of each cell, leaving the bottom half unbleached as an internal control. The CFP fluorescence intensity was analyzed using Metamorph software (Universal Imaging Corp.), and the energy transfer efficiency was calculated using the formula: FRET %=((CFPAP−CFPBP)/CFPAP)×100. Photobleached areas in 11-19 cells were analyzed for each experimental condition.

N#CC(=C(/N)Sc1ccccc1N)/C(C#N)=C(\N)Sc1ccccc1N [Compound U0126]
PDGF-induced phosphorylation of p44/p22 MAPK [1]: blocked p44/p22 MAPK phosphorylation

CC1=C2C[C@H]3[C@@H](CC=C4C[C@@H](O)CC[C@@]43C)[C@@H]2CC[C@]12O[C@@H]1C[C@H](C)CN[C@H]1[C@H]2C [cyclopamine, reference compound]
Inhibition of Hh pathway activation induced by 0.5 μM SAG [2]: resistant to inhibition | Fluorescence intensity of Shh-treated Shh-EGFP cells (FACS, words) [3]: fluorescence intensities similar to those of untreated cells | Block of Shh-induced differentiation of C3H10T(1/2) cells into osteoblasts [4]: block the Shh-induced differentiation | FLAG-Gli2 levels and processing (immunoblotting) [5]: can suppress the effects of Shh | Inhibition of Hh pathway activity in Ptch1-/- fibroblasts [6]: inhibit Hh pathway activity | Inhibition of SmoM2-dependent Gli reporter expression in SmoM2-LIGHT cells [7]: significantly less potent

CNC1CCC(N(Cc2cccc(-c3ccncc3)c2)C(=O)c2sc3ccccc3c2Cl)CC1 (centres unmarked) [SAG, reference compound]
Shh-induced fold change in Smo-CFP/Smo-YFP FRET [8]: Shh-insensitive
